Values after ≈ are worked out from the molar mass of the structure shown. Like-named read-outs stand apart in the source and are kept apart here.
Legend:
A. baumannii ATCC 19606 = test: MIC determination, broth microdilution, ESKAPE panel; format: cell-based; conditions: Acinetobacter baumannii, ATCC19606; iron-depleted cation-adjusted Mueller-Hinton broth, 2,2-dipyridyl 160 μM; 37° C., 18-20 hours; read-out: MIC A. baumannii ATCC 19606
Description: (§1) Minimum inhibitory concentration (MIC) is determined by a broth microdilution method according to the recommendation of the Clinical and Laboratory Standards Institute (CLSI) with minor modification. […] Strains of an ESKAPE panel (E. faecium ATCC 700221, S. aureus ATCC 29213, K. pneumoniae ATCC 43816, A. baumannii ATCC 19606, P. aeruginosa ATCC 27853 and Escherichia coli ATCC 25922) were obtained originally from the American Type Culture Collection (ATCC) and used for MIC determinations of compounds. The bacteria inoculum in the test is […].

E. faecium ATCC 700221 = test: as above; format: cell-based; conditions: Enterococcus faecium, ATCC700221; iron-depleted cation-adjusted Mueller-Hinton broth, 2,2-dipyridyl 160 μM; 37° C., 18-20 hours; read-out: MIC E. faecium ATCC 700221
Description: as §1

[1] = tested on: Escherichia coli ATCC 25922; test: as above; format: cell-based; conditions: ATCC25922, iron-depleted cation-adjusted Mueller-Hinton broth, 2,2-dipyridyl 160 μM, 37° C., 18-20 hours, read-out: MIC E. coli ATCC 25922
Description: as §1

K. pneumoniae ATCC 43816 = test: as above; format: cell-based; conditions: Klebsiella pneumoniae, ATCC43816; iron-depleted cation-adjusted Mueller-Hinton broth, 2,2-dipyridyl 160 μM; 37° C., 18-20 hours; read-out: MIC K. pneumoniae ATCC 43816
Description: as §1

P. aeruginosa ATCC 27853 = test: as above; format: cell-based; conditions: Pseudomonas aeruginosa, ATCC27853; iron-depleted cation-adjusted Mueller-Hinton broth, 2,2-dipyridyl 160 μM; 37° C., 18-20 hours; read-out: MIC P. aeruginosa ATCC 27853
Description: as §1

S. aureus ATCC 29213 = test: as above; format: cell-based; conditions: Staphylococcus aureus, ATCC29213; iron-depleted cation-adjusted Mueller-Hinton broth, 2,2-dipyridyl 160 μM; 37° C., 18-20 hours; read-out: MIC S. aureus ATCC 29213
Description: as §1

A.b TNP 41704 = test: MIC against A. baumannii clinical isolates, alone and in combination with antibiotics; format: cell-based; conditions: for MIC: Acinetobacter baumannii, TNP41704, Compounds alone, read-out: MIC A.b TNP 41704
A.b TNP 41708 = test: as above; format: cell-based; conditions: for MIC: Acinetobacter baumannii, TNP41708, read-out: MIC A.b TNP 41708
Description: as §1

A.b TNP 41709 = test: as above; format: cell-based; conditions: for MIC: Acinetobacter baumannii, TNP41709, Compounds alone, read-out: MIC A.b TNP 41709
AmpC_PA = biological target: T1, AmpC_PA (Pseudomonas aeruginosa, UniProt P24735); test: β-lactamase inhibition, spectrophotometric assay of nitrocefin hydrolysis; format: biochemical, P. aeruginosa
T1 construct: made in house
T1 sequence (P24735 27-397): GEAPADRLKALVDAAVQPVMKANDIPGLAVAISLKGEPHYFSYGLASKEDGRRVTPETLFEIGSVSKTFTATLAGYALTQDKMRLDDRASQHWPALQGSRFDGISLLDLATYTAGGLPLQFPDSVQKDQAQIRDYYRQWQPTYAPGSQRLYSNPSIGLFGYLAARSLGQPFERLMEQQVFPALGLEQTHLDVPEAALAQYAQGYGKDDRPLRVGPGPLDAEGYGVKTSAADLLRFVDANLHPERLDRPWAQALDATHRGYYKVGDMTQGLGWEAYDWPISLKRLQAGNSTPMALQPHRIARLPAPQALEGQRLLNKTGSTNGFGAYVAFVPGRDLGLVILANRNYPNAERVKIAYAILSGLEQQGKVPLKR
Description: (§2) Hydrolytic inactivation of the β-lactam antibiotics by β-lactamases is the most widespread drug resistant mechanism and the most challenge clinically among Gram-negative bacterial pathogens. Based on the amino acid sequences, the β-lactamases are grouped into four classes (Ambler classification), of which A, C and D are serine hydrolases and B encompasses metallo-β-lactamases. The IC50 of selected derivatives disclosed herein (identified with reference to example number) plus six reference β-lactam or β-lactamase inhibitors were determined against 7 representative β-lactamases of various classes in a standard spectrophotometric assay of nitrocefin hydrolysis. The assay is performed in 384-well plate. The seven recombinant β-lactamases AmpC_AB (from A. baumannii), AmpC_PA (from P. aeruginosa), KPC-2, NDM-1, IMP-1, VIM-1 and OXA 24/40) are expressed and purified. The reaction buffer for class A, C and D enzymes is 100 mM Na2HPO4—KH2PO4 (pH 7.1) plus 0.005% Tween-20, and for class B enzymes 10 μM ZnSO4 is added. […] The 50 μL of reaction solution composed of 2 pM of β-lactamase, 200 μM of nitrocefin and series of 3-fold dilutions of test or control compounds are added by Cybio SELMA system into 384-plate and incubated in dark at 25° C. for 2 hours. The OD490 is read in MC SpectraMax Plus384 plate reader.

AmpC_AB = AmpC_AB (Acinetobacter baumannii, UniProt Q6DRA1); test: as above; format: biochemical
Description: as §2

IMP-1 = biological target: T2, IMP-1 (Serratia marcescens, UniProt P52699); test: as above; format: biochemical; conditions: class B β-lactamase, 10 μM ZnSO4; 200 μM nitrocefin, 25° C., 2 hours; read-out: IC50 IMP-1
T2 construct: made in house
T2 sequence (P52699 19-246, looked up, species assumed): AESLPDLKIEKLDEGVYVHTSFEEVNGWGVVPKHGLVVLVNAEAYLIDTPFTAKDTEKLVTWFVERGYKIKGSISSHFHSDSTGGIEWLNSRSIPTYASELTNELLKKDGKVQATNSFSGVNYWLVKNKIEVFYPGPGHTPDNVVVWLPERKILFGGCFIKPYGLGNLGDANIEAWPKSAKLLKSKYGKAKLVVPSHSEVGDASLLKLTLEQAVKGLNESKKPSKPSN
Description: as §2

KPC-2 = biological target: T3, KPC-2 (Klebsiella pneumoniae, UniProt Q9F663); test: as above; format: biochemical; conditions: class A β-lactamase; 200 μM nitrocefin, 25° C., 2 hours; read-out: IC50 KPC-2
T3 construct: made in house
T3 sequence (Q9F663 25-293, looked up, species assumed): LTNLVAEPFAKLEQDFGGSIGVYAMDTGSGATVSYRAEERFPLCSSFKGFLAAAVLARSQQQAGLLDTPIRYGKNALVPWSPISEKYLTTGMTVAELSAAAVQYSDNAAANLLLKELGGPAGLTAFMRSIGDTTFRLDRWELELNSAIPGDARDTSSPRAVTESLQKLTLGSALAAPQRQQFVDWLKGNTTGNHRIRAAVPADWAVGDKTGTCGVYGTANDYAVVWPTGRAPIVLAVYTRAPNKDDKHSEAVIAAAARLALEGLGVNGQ
Description: as §2

NDM-1 = biological target: T4, NDM-1 (Klebsiella pneumoniae, UniProt C7C422); test: as above; format: biochemical; conditions: class B β-lactamase, 10 μM ZnSO4; 200 μM nitrocefin, 25° C., 2 hours; read-out: IC50 NDM-1
T4 construct: made in house
T4 sequence (C7C422 29-270, looked up, species assumed): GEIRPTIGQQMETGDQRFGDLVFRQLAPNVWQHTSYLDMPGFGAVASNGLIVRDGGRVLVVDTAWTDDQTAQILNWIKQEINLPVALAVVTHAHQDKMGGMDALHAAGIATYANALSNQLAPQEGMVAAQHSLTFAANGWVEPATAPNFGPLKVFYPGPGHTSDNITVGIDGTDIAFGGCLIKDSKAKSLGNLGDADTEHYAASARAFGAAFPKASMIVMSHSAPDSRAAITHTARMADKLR
Description: as §2

OXA 24/40 = biological target: T5, OXA 24/40 (Acinetobacter baumannii, UniProt Q8RLA6); test: as above; format: biochemical
T5 construct: made in house
T5 sequence (Q8RLA6 22-275): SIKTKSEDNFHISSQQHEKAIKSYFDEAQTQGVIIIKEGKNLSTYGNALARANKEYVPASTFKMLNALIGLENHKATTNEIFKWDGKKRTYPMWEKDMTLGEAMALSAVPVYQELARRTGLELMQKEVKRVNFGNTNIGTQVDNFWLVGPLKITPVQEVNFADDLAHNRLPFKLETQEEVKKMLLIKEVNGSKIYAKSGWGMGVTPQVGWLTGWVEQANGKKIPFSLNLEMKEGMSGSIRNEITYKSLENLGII
Description: as §2

VIM-1 = biological target: T6, VIM-1 (Pseudomonas aeruginosa, UniProt A0A0F7KYQ8); test: as above; format: biochemical; conditions: for IC50: class B β-lactamase, 10 μM ZnSO4, 200 μM nitrocefin, 25° C., 2 hours, read-out: IC50 VIM-1
T6 construct: made in house
Description: as §2

[2] = Class C β-lactamase, 200 μM nitrocefin, 25° C., 2 hours, read-out: IC50 AmpC_AB

| Structure (SMILES) | IC50 (AmpC_PA) [µM] | IC50 (AmpC_AB; [2]) [µM] | IC50 (IMP-1) [µM] | IC50 (KPC-2) [µM] | IC50 (NDM-1) [µM] | IC50 (OXA 24/40) [µM] | IC50 (VIM-1) [µM] | also measured |
| --- | --- | --- | --- | --- | --- | --- | --- | --- |
| C[C@]1(/C=N/NC(=O)CNC(=O)c2ccc(O)c(O)c2)[C@H](C(=O)O)N2C(=O)C[C@H]2S1(=O)=O [Example 64, (2S,3R,5R)-3-((E)-(2-(2-(3,4-dihydroxybenzamido)acetyl)hydrazono)methyl)-3-methyl-7-oxo-4-thia-1-azabicyclo[3.2.0]heptane-2-carboxylic acid 4,4-dioxide] | 0.641 | 0.474 | > 200 | > 200 | > 200 | 5.77 | > 200 | MIC (A. baumannii ATCC 19606): 8 µg/mL (≈ 17.6 µM); MIC (E. faecium ATCC 700221): > 128 µg/mL; MIC [1]: > 128 µg/mL; MIC (K. pneumoniae ATCC 43816): 128 µg/mL (≈ 282 µM); MIC (P. aeruginosa ATCC 27853): > 128 µg/mL; MIC (S. aureus ATCC 29213): 64 µg/mL (≈ 141 µM); MIC (A.b TNP 41704): > 128 µg/mL; MIC A.b TNP 41704 (A.b TNP 41704; Compounds + meropenem (1:1)): 2 µg/mL; MIC A.b TNP 41704 (A.b TNP 41704; Compounds + sulbactam (1:1)): 4 µg/mL; MIC (A.b TNP 41708): > 128 µg/mL; MIC A.b TNP 41708 (A.b TNP 41708; Compounds + meropenem (1:1)): 4 µg/mL; MIC A.b TNP 41708 (A.b TNP 41708; Compounds + sulbactam (1:1)): 8 µg/mL; MIC (A.b TNP 41709): > 128 µg/mL; MIC A.b TNP 41709 (A.b TNP 41709; Compounds + meropenem (1:1)): 2 µg/mL; MIC A.b TNP 41709 (A.b TNP 41709; Compounds + sulbactam (1:1)): 4 µg/mL |
| C[C@]1(/C=N/NC(=O)c2ccc(O)c(O)c2Cl)[C@H](C(=O)O)N2C(=O)C[C@H]2S1(=O)=O [Example 23, (2S,3R,5R)-3-((E)-(2-(2-chloro-3,4-dihydroxybenzoyl)hydrazono)methyl)-3-methyl-7-oxo-4-thia-1-azabicyclo[3.2.0]heptane-2-carboxylic acid 4,4-dioxide] | 2.45 | 0.718 | > 200 | > 200 | > 200 | 3.18 | > 200 | – |
| C[C@]1(/C=N/NC(=O)C2CCN(C(=O)c3ccc(O)c(O)c3Cl)C2)[C@H](C(=O)O)N2C(=O)C[C@H]2S1(=O)=O (stereo partly drawn) [Example 38, (2S,3R,5R)-3-((E)-(2-(1-(2-chloro-3,4-dihydroxybenzoyl)pyrrolidine-3-carbonyl)hydrazono)methyl)-3-methyl-7-oxo-4-thia-1-azabicyclo[3.2.0]heptane-2-carboxylic acid 4,4-dioxide] | 2.38 | 7.62 | > 200 | > 200 | > 200 | 5.93 | > 200 | MIC (A. baumannii ATCC 19606): 8 µg/mL (≈ 15.1 µM); MIC (E. faecium ATCC 700221): > 128 µg/mL; MIC [1]: > 128 µg/mL; MIC (K. pneumoniae ATCC 43816): 32 µg/mL (≈ 60.5 µM); MIC (P. aeruginosa ATCC 27853): > 128 µg/mL; MIC (S. aureus ATCC 29213): 128 µg/mL (≈ 242 µM); MIC (A.b TNP 41704): > 128 µg/mL; MIC A.b TNP 41704 (A.b TNP 41704; Compounds + meropenem (1:1)): 4 µg/mL; MIC A.b TNP 41704 (A.b TNP 41704; Compounds + sulbactam (1:1)): 4 µg/mL; MIC (A.b TNP 41708): > 128 µg/mL; MIC A.b TNP 41708 (A.b TNP 41708; Compounds + meropenem (1:1)): 4 µg/mL; MIC A.b TNP 41708 (A.b TNP 41708; Compounds + sulbactam (1:1)): 8 µg/mL; MIC (A.b TNP 41709): > 128 µg/mL; MIC A.b TNP 41709 (A.b TNP 41709; Compounds + meropenem (1:1)): 2 µg/mL; MIC A.b TNP 41709 (A.b TNP 41709; Compounds + sulbactam (1:1)): 8 µg/mL |
| C[C@]1(COC(=O)NNC(=O)c2ccc(O)c(O)c2)[C@H](C(=O)O)N2C(=O)C[C@H]2S1(=O)=O [Example 69, (2S,3R,5R)-3-(((2-(3,4-dihydroxybenzoyl)hydrazinecarbonyl)oxy)methyl)-3-methyl-7-oxo-4-thia-1-azabicyclo[3.2.0]heptane-2-carboxylic acid 4,4-dioxide] | 8.6 | 3.6 | > 200 | > 200 | > 200 | 65.2 | > 200 | – |
| O=C(O)[C@H]1/C(=C/CO)O[C@@H]2CC(=O)N21 [Clavulanate, reference compound] | > 200 | – | > 200 | > 200 | > 200 | > 200 | > 200 | IC50 (AmpC_AB): > 200 µM |
| CN(/N=C/[C@@]1(C)[C@H](C(=O)O)N2C(=O)C[C@H]2S1(=O)=O)C(=O)c1ccc(O)c(O)c1Cl [Example 3, (2S,3R,5R)-3-((E)-(2-(2-chloro-3,4-dihydroxybenzoyl)-2-methylhydrazono)methyl)-3-methyl-7-oxo-4-thia-1-azabicyclo[3.2.0]heptane-2-carboxylic acid 4,4-dioxide] | 2.42 | 0.72 | > 200 | > 200 | > 200 | 2.3 | > 200 | – |
| C[C@]1(/C=N/NC(=O)c2cnccn2)[C@H](C(=O)O)N2C(=O)C[C@H]2S1(=O)=O [Example 19, (2S,3R,5R)-3-methyl-7-oxo-3-((E)-(2-(pyrazine-2-carbonyl)hydrazono)methyl)-4-thia-1-azabicyclo[3.2.0]heptane-2-carboxylic acid 4,4-dioxide] | 3.68 | 5.76 | > 200 | > 200 | > 200 | 2.49 | > 200 | – |
| O=C(NNC(=O)[C@@H]1CC[C@@H]2CN1C(=O)N2OS(=O)(=O)O)[C@@H]1CCCNC1 [Zidebactam, reference compound] | – | 0.248 | > 200 | 2.36 | > 200 | 51 | > 200 | – |
| CN(/N=C/[C@@]1(C)[C@H](C(=O)O)N2C(=O)C[C@H]2S1(=O)=O)C(=O)c1ccc(O)c(O)c1 [Example 7, (2S,3R,5R)-3-((E)-(2-(3,4-dihydroxybenzoyl)-2-methylhydrazono)methyl)-3-methyl-7-oxo-4-thia-1-azabicyclo[3.2.0]heptane-2-carboxylic acid 4,4-dioxide] | 1.52 | 0.596 | > 200 | > 200 | > 200 | 6.03 | 58.2 | activity against VIM-1 of class B (in words) (VIM-1; text summary of Table 4): weak activity |
| C[C@]1(Cn2ccnn2)[C@H](C(=O)O)N2C(=O)C[C@H]2S1(=O)=O [Tazobactam, reference compound] | – | – | > 200 | 90.2 | > 200 | 123 | > 200 | IC50 (AmpC_AB): 23.8 µM |

From US11040987B2 (TenNor Therapeutics Limited, priority 2019, dated 2021)
